Results on 1 molecule are retold here after PubChem BioAssay AID743034 (The Scripps Research Institute Molecular Screening Center, 2013).

Activity calls are given as the source filed them.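 Rule for the calls: active = half-life above 60 minutes with both human and mouse liver microsomes; inactive = half-life below 60 minutes in both species.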

For one series, the system named is Pooled mouse microsomes. The experiment in a line: metabolic stability in hepatic microsomes – biochemical, LC-MS/MS, human and mouse microsomes, powder samples, ADME assay for V1a-R antagonist project, late-stage follow-up (AID 743034). As to conditions: pooled human/mouse liver microsomes, at 1 µM, hits give high values. In general terms: Liver microsomes are vesicles of endoplasmic reticulum, rich in cytochrome P450 enzymes.

A further series relates to Pooled human microsomes. Described as above. To be noted: pooled human/mouse liver microsomes, at 1 µM, hits give high values.

By half-life is commonly meant the time needed for the level to fall by half in the phase considered.

For the molecule `O=C(C1CCN(c2ccc(Cl)cn2)CC1)N(CC1CC1)c1ccc(Cl)cc1`, the results for the half-life in the series with Pooled mouse microsomes and in the series on Pooled human microsomes were 7.8 min (inactive) and 23.8 min (inactive), respectively.
